The record followed here is patent US20200392116A1, “SUBSTITUTED HETEROCYCLES AS c-MYC TARGETING AGENTS” (NORTHWESTERN UNIVERSITY, priority 2019, published 2020).

This test in a line: Potency code of Table 2 (assay not stated).

`Cn1nc(-c2ccc(OCc3ccc(Cl)cc3)c(-c3ccc(F)cc3)c2O)cc1C(F)(F)F` [NUCC-0196348]: the Potency code result was “+++ (10-30 +++)”. In the case of `Cn1cc(-c2ccc(F)cc2)c(-c2ccc(OCc3ccc(Cl)cc3)cc2O)n1` [NUCC-0196349] it was “+ (>40 +)”. For `Oc1cc(OCc2ccc(Cl)cc2)ccc1-c1n[nH]cc1-c1cccc(Cl)c1` [NUCC-0196350], the Potency code result is recorded as “+++ (10-30 +++)”.

On to `Cn1cc(-c2cccc(Cl)c2)c(-c2ccc(OCc3ccc(Cl)cc3)cc2O)n1` [NUCC-0196351], for which the Potency code entry is “+ (>40 +)”. In the case of `CCc1ccc(Oc2c(-c3ccc(OCc4ccc(Cl)cc4)cc3OC)nn(C)c2C(F)(F)F)cc1` [NUCC-0196352] it was “+ (>40 +)”.

For the compound `CCc1ccc(Oc2c(-c3ccc(OCc4ccc(Cl)cc4)cc3)nn(C)c2C(F)(F)F)cc1` [NUCC-0196353], the Potency code result is on record as “+ (>40 +)”. In the case of `CCc1ccc(Oc2c(-c3ccc(OCc4ccc(Cl)c(Cl)c4)cc3O)nn(C)c2C(F)(F)F)cc1` [NUCC-0196354] it was “+ (>40 +)”; in that of `CCc1ccc(Oc2c(-c3ccc(OCc4ccc(Cl)c(Cl)c4)cc3O)n[nH]c2C(F)(F)F)cc1` [NUCC-0196355], “+++ (10-30 +++)”; in that of `CCc1ccc(Oc2c(-c3ccc(OCCc4ccc(Cl)cc4)cc3O)nn(C)c2C(F)(F)F)cc1` [NUCC-0196356], “+ (>40 +)”. In the case of `CCc1ccc(Oc2c(-c3ccc(OCCc4ccc(Cl)cc4)cc3O)n[nH]c2C(F)(F)F)cc1` [NUCC-0196357] it was “+++ (10-30 +++)”; in that of `CCc1ccc(Oc2c(-c3ccc(OCc4ccc(OC)cc4)cc3O)nn(C)c2C(F)(F)F)cc1` [NUCC-0196358], “+ (>40 +)”.

As to `CCc1ccc(Oc2c(-c3ccc(OCc4ccc(OC)cc4)cc3O)n[nH]c2C(F)(F)F)cc1` [NUCC-0196359], the Potency code entry is recorded as “+ (>40 +)”. In the case of `Cn1nc(-c2ccc(OCc3ccc(Cl)cc3)c(-c3cc(C(F)(F)F)cc(C(F)(F)F)c3)c2O)cc1C(F)(F)F` [NUCC-0196360] it was “+ (>40 +)”; in that of `Oc1c(-c2cc(C(F)(F)F)[nH]n2)ccc(OCc2ccc(Cl)cc2)c1-c1cc(C(F)(F)F)cc(C(F)(F)F)c1` [NUCC-0196362], “++ (30-40 ++)”. As for `Cn1nc(-c2ccc(OCc3ccc(Cl)cc3)c(-c3cccnc3)c2O)cc1C(F)(F)F` [NUCC-0196364], the Potency code entry is recorded as “+ (>40 +)”. To `Cn1nc(C(F)(F)F)cc1-c1ccc(OCc2ccc(Cl)cc2)c(-c2cccnc2)c1O` [NUCC-0196365] belongs “+ (>40 +)”; to `Oc1c(-c2cc(C(F)(F)F)[nH]n2)ccc(OCc2ccc(Cl)cc2)c1-c1cccnc1` [NUCC-0196366], “+ (>40 +)”; to `Oc1cc(OCc2ccc(Cl)cc2)ccc1-c1n[nH]cc1-c1ccccc1` [NUCC-0198293], “+ (>40 +)”. To `Cn1cc(-c2ccccc2)c(-c2ccc(OCc3ccc(Cl)cc3)cc2O)n1` [NUCC-0198294] belongs “+ (>40 +)”; to `Oc1cc(OCc2ccc(Cl)cc2)ccc1-c1n[nH]c(C(F)(F)F)c1-c1ccccc1` [NUCC-0198295], “++++ (<10 ++++)”; to `Cn1nc(C(F)(F)F)c(-c2ccccc2)c1-c1ccc(OCc2ccc(Cl)cc2)cc1O` [NUCC-0198296], “+ (>40 +)”. In the case of `Cn1nc(-c2ccc(OCc3ccc(Cl)cc3)cc2O)c(-c2ccccc2)c1C(F)(F)F` [NUCC-0198297], the Potency code result was “+ (>40 +)”. Regarding `Cc1[nH]nc(-c2ccc(OCc3ccc(Cl)cc3)cc2O)c1-c1ccccc1` [NUCC-0198298], the Potency code result was “+ (>40 +)”.

Regarding `Cc1nn(C)c(-c2ccc(OCc3ccc(Cl)cc3)cc2O)c1-c1ccccc1` [NUCC-0198299], the Potency code result is listed as “+ (>40 +)”. In the case of `Cc1c(-c2ccccc2)c(-c2ccc(OCc3ccc(Cl)cc3)cc2O)nn1C` [NUCC-0198300] it was “+ (>40 +)”; in that of `CCc1[nH]nc(-c2ccc(OCc3ccc(Cl)cc3)cc2O)c1-c1ccccc1` [NUCC-0198301], “+ (>40 +)”. In the case of `CCc1nn(C)c(-c2ccc(OCc3ccc(Cl)cc3)cc2O)c1-c1ccccc1` [NUCC-0198302] it was “+ (>40 +)”. In the case of `CCc1c(-c2ccccc2)c(-c2ccc(OCc3ccc(Cl)cc3)cc2O)nn1C` [NUCC-0198303] it was “+ (>40 +)”; in that of `COc1ccc(-c2c[nH]nc2-c2ccc(OCc3ccc(Cl)cc3)cc2O)cc1` [NUCC-0198304], “+ (>40 +)”. `COc1ccc(-c2cn(C)nc2-c2ccc(OCc3ccc(Cl)cc3)cc2O)cc1` [NUCC-0198305]: the Potency code result was “+ (>40 +)”. To `COc1ccc(-c2c(C)nn(C)c2-c2ccc(OCc3ccc(Cl)cc3)cc2O)cc1` [NUCC-0198306] belongs “+ (>40 +)”. As for `COc1ccc(-c2c(-c3ccc(OCc4ccc(Cl)cc4)cc3O)nn(C)c2C)cc1` [NUCC-0198307], the Potency code result is listed as “+ (>40 +)”.

With `COc1cccc(-c2c[nH]nc2-c2ccc(OCc3ccc(Cl)cc3)cc2O)c1` [NUCC-0198308], the Potency code result was “+ (>40 +)”. For the compound `COc1cccc(-c2c(C(F)(F)F)nn(C)c2-c2ccc(OCc3ccc(Cl)cc3)cc2O)c1` [NUCC-0198310], the Potency code entry is “+ (>40 +)”.

With `COc1cccc(-c2c(-c3ccc(OCc4ccc(Cl)cc4)cc3O)nn(C)c2C(F)(F)F)c1` [NUCC-0198311], the Potency code result is “+ (>40 +)”. To `COc1cccc(-c2c(-c3ccc(OCc4ccc(Cl)cc4)cc3O)n[nH]c2C)c1` [NUCC-0198312] belongs “+ (>40 +)”; to `COc1cccc(-c2c(C)nn(C)c2-c2ccc(OCc3ccc(Cl)cc3)cc2O)c1` [NUCC-0198313], “+ (>40 +)”; to `COc1cccc(-c2c(-c3ccc(OCc4ccc(Cl)cc4)cc3O)nn(C)c2C)c1` [NUCC-0198314], “+ (>40 +)”. In the case of `CCc1[nH]nc(-c2ccc(OCc3ccc(Cl)cc3)cc2O)c1-c1cccc(OC)c1` [NUCC-0198315] it was “+ (>40 +)”. Consider `CCc1nn(C)c(-c2ccc(OCc3ccc(Cl)cc3)cc2O)c1-c1cccc(OC)c1` [NUCC-0198316], for which the Potency code entry was “+ (>40 +)”. In the case of `CCc1c(-c2cccc(OC)c2)c(-c2ccc(OCc3ccc(Cl)cc3)cc2O)nn1C` [NUCC-0198317] it was “+ (>40 +)”; in that of `Oc1cc(OCc2ccc(Cl)cc2)ccc1-c1n[nH]cc1-c1cc(C(F)(F)F)cc(C(F)(F)F)c1` [NUCC-0198318], “++ (30-40 ++)”; in that of `Cn1cc(-c2cc(C(F)(F)F)cc(C(F)(F)F)c2)c(-c2ccc(OCc3ccc(Cl)cc3)cc2O)n1` [NUCC-0198319], “+ (>40 +)”. With `Oc1cc(OCc2ccc(Cl)cc2)ccc1-c1n[nH]cc1-c1cccnc1` [NUCC-0198320], the Potency code entry was “+ (>40 +)”.

On to `Cn1cc(-c2cccnc2)c(-c2ccc(OCc3ccc(Cl)cc3)cc2O)n1` [NUCC-0198321], for which the Potency code result is on record as “+ (>40 +)”. To `Oc1cc(OCc2ccc(Cl)cc2)ccc1-c1n[nH]cc1-c1ccoc1` [NUCC-0198322] belongs “++ (30-40 ++)”; to `Cn1ncc(-c2ccoc2)c1-c1ccc(OCc2ccc(Cl)cc2)cc1O` [NUCC-0198323], “+ (>40 +)”; to `Cn1cc(-c2ccoc2)c(-c2ccc(OCc3ccc(Cl)cc3)cc2O)n1` [NUCC-0198324], “+ (>40 +)”.

`Oc1c(-c2cc(C(F)(F)F)[nH]n2)ccc(OCc2ccc(Cl)cc2)c1-c1ccoc1` [NUCC-0198325]: the Potency code result is reported as “+ (>40 +)”. To `COc1cccc(-c2cn(C)nc2-c2ccc(OCc3ccc(Cl)cc3)cc2O)c1` [NUCC-0198326] belongs “+ (>40 +)”. As for `Cc1cc(C)cc(-c2c[nH]nc2-c2ccc(OCc3ccc(Cl)cc3)cc2O)c1` [NUCC-0198352], the Potency code entry is “+ (>40 +)”. Consider `Cc1cc(C)cc(-c2cn(C)nc2-c2ccc(OCc3ccc(Cl)cc3)cc2O)c1` [NUCC-0198353], for which the Potency code result is “+ (>40 +)”.

As for `Cc1cc(C)cc(-c2cnn(C)c2-c2ccc(OCc3ccc(Cl)cc3)cc2O)c1` [NUCC-0198354], the Potency code result is “+ (>40 +)”.

With `Cc1ccccc1-c1c[nH]nc1-c1ccc(OCc2ccc(Cl)cc2)cc1O` [NUCC-0198355], the Potency code entry is “+ (>40 +)”.

Consider `Cc1ccccc1-c1cn(C)nc1-c1ccc(OCc2ccc(Cl)cc2)cc1O` [NUCC-0198356], for which the Potency code result is reported as “+ (>40 +)”. To `COc1ccccc1-c1c[nH]nc1-c1ccc(OCc2ccc(Cl)cc2)cc1O` [NUCC-0198357] belongs “+ (>40 +)”; to `COc1ccccc1-c1cn(C)nc1-c1ccc(OCc2ccc(Cl)cc2)cc1O` [NUCC-0198358], “+ (>40 +)”; to `Cc1cc(C)c(-c2c[nH]nc2-c2ccc(OCc3ccc(Cl)cc3)cc2O)c(C)c1` [NUCC-0198359], “++ (30-40 ++)”.

As for `Cc1cc(C)c(-c2cn(C)nc2-c2ccc(OCc3ccc(Cl)cc3)cc2O)c(C)c1` [NUCC-0198360], the Potency code result is on record as “+ (>40 +)”. To `Cn1cc(-c2c[nH]nc2-c2ccc(OCc3ccc(Cl)cc3)cc2O)cn1` [NUCC-0198361] belongs “+ (>40 +)”; to `Cn1cc(-c2cn(C)nc2-c2ccc(OCc3ccc(Cl)cc3)cc2O)cn1` [NUCC-0198362], “+ (>40 +)”; to `N#Cc1ccc(-c2c(OCc3ccc(Cl)cc3)ccc(-c3cc(C(F)(F)F)[nH]n3)c2O)cc1` [NUCC-0198391], “++++ (<10 ++++)”.

Take `Cn1nc(C(F)(F)F)cc1-c1ccc(OCc2ccc(Cl)cc2)c(-c2ccc(C#N)cc2)c1O` [NUCC-0198392]: the Potency code result was “+ (>40 +)”.

`Cn1nc(-c2ccc(OCc3ccc(Cl)cc3)c(-c3ccc(C#N)cc3)c2O)cc1C(F)(F)F` [NUCC-0198393]: the Potency code result is recorded as “+ (>40 +)”.

As to `NC(=O)c1ccc(-c2c(OCc3ccc(Cl)cc3)ccc(-c3cc(C(F)(F)F)[nH]n3)c2O)cc1` [NUCC-0198394], the Potency code result is reported as “++ (30-40 ++)”.

Consider `CN/N=C(/C)c1ccc(-c2c(OCc3ccc(Cl)cc3)ccc(-c3cc(C(F)(F)F)[nH]n3)c2O)cc1` [NUCC-0198395], for which the Potency code result was “+ (>40 +)”. As to `CN/N=C(/C)c1ccc(-c2c(OCc3ccc(Cl)cc3)ccc(-c3cc(C(F)(F)F)nn3C)c2O)cc1` [NUCC-0198396], the Potency code result was “+ (>40 +)”.
